For 1 compound, remaining binding results are on record in publication PMC7206119, “RIP1 inhibition blocks inflammatory diseases but not tumor growth or metastases” (Cell Death and Differentiation, 2019).

Structures are written as SMILES.

Among the targets are CHEK2 (Homo sapiens, UniProt O96017); EGFR(G719C) (Homo sapiens, UniProt P00533, G719C); MUSK (Homo sapiens, UniProt O15146); CAMKK1 (Homo sapiens, UniProt Q8N5S9); LATS2 (Homo sapiens, UniProt Q9NRM7); WNK2 (Homo sapiens, UniProt Q9Y3S1); ACVR2B (Homo sapiens, UniProt Q13705); NEK10 (Homo sapiens, UniProt Q6ZWH5); CSNK1G3 (Homo sapiens, UniProt Q9Y6M4); PIM2 (Homo sapiens, UniProt Q9P1W9); PAK3 (Homo sapiens, UniProt O75914); LRRK2(G2019S) (Homo sapiens, UniProt Q5S007, G2019S); EPHA5 (Homo sapiens, UniProt P54756); MARK3 (Homo sapiens, UniProt P27448); PAK4 (Homo sapiens, UniProt O96013); MTOR (Homo sapiens, UniProt P42345); RIOK2 (Homo sapiens, UniProt Q9BVS4); MYLK2 (Homo sapiens, UniProt Q9H1R3); TYRO3 (Homo sapiens, UniProt Q06418); MAPKAPK2 (Homo sapiens, UniProt P49137); SRPK1 (Homo sapiens, UniProt Q96SB4).

What all share (assay): biochemical
Holding throughout (set-up): DiscoverX kinase panel, active-site competition binding (KINOMEscan type), percent of control at one concentration
Holding throughout (settings): competition binding, percent of control

A further assay addresses T1, PFPK5(P.falciparum) (Plasmodium falciparum, UniProt P61075).
T1 construct: gene MAL13P1.279

Sequence of EGFR(G719C) (P00533 whole entry G719C): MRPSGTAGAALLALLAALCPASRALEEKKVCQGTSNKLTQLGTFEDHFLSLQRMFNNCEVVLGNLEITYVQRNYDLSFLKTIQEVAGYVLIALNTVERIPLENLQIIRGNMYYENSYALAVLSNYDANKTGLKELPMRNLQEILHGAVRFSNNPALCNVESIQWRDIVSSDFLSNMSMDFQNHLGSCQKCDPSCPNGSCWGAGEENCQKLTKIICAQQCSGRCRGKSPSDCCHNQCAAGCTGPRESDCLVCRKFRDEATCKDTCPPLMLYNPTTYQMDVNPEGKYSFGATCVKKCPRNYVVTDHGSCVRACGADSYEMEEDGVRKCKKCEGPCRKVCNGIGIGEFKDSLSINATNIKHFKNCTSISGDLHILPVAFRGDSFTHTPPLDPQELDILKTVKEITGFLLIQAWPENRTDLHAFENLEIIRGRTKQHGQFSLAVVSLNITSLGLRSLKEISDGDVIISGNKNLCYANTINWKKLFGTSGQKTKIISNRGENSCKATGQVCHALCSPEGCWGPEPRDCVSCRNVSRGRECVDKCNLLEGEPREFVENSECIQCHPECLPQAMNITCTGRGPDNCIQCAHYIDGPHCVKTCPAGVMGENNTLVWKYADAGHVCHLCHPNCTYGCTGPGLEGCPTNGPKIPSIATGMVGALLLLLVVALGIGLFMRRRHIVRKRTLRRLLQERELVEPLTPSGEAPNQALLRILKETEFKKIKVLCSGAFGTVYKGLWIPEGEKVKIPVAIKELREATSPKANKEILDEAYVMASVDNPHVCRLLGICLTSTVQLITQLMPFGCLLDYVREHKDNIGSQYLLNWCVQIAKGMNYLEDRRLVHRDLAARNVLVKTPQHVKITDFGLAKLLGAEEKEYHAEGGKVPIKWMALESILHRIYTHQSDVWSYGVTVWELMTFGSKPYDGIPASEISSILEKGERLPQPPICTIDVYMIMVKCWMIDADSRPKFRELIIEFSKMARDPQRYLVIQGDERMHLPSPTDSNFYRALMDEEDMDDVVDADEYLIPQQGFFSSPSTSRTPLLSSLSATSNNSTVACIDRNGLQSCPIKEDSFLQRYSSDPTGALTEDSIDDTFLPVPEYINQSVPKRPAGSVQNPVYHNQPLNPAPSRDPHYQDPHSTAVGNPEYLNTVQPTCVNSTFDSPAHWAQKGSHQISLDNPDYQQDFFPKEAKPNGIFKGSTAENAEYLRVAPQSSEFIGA
Sequence of CSNK1G3 (Q9Y6M4 whole entry): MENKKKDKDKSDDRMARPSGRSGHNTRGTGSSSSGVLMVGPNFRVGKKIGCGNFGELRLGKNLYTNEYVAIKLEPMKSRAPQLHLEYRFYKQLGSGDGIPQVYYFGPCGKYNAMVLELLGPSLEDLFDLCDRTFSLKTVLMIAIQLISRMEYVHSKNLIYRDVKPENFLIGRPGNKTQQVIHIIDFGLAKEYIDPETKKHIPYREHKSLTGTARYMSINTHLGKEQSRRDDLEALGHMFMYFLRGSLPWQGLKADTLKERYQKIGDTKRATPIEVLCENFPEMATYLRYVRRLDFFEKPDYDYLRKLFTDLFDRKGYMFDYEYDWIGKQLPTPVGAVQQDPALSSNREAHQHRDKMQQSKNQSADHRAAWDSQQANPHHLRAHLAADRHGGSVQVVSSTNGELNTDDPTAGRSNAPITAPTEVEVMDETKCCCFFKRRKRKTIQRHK
Sequence of MUSK (O15146 whole entry): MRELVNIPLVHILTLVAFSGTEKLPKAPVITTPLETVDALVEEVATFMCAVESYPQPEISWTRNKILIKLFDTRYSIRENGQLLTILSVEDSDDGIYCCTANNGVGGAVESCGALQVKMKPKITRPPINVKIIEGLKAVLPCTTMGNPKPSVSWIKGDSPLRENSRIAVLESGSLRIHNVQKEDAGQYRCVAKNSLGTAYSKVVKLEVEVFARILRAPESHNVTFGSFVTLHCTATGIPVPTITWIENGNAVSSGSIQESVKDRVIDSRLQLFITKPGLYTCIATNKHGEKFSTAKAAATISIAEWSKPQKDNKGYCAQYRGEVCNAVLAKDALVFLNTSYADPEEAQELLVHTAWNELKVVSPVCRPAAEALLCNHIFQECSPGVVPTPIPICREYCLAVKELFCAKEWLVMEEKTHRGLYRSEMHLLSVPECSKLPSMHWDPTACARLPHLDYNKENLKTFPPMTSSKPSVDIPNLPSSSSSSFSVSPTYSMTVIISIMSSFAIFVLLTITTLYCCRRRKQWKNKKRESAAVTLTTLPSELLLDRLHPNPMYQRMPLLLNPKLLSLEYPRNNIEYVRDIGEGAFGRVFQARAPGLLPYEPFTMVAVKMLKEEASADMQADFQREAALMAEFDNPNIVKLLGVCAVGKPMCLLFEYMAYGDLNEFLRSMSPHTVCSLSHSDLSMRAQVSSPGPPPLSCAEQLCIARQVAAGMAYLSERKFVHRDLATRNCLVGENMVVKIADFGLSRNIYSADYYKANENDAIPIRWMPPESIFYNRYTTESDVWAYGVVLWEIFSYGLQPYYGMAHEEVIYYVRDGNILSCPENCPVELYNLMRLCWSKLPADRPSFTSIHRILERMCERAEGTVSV
Sequence of MAPKAPK2 (P49137 whole entry): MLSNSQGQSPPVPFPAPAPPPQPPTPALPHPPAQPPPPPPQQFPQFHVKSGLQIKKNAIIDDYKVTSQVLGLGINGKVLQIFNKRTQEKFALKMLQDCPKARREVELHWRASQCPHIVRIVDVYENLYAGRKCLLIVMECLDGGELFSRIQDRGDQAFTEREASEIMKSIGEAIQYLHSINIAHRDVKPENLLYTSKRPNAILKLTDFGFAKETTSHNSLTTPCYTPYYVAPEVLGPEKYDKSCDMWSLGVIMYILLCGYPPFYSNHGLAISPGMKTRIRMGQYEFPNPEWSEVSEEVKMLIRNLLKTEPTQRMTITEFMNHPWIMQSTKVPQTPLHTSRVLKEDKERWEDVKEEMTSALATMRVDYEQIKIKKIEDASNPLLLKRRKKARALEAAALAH
Sequence of PIM2 (Q9P1W9 whole entry): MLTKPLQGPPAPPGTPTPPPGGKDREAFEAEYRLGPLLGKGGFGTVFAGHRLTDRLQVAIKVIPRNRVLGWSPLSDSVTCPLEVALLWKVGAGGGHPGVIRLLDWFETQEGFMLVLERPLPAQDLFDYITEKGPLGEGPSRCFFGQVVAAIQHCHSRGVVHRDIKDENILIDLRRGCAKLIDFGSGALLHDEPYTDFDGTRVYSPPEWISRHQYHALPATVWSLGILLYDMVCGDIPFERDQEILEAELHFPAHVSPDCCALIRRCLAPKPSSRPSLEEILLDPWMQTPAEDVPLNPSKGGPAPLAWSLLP
Sequence of MARK3 (P27448 whole entry): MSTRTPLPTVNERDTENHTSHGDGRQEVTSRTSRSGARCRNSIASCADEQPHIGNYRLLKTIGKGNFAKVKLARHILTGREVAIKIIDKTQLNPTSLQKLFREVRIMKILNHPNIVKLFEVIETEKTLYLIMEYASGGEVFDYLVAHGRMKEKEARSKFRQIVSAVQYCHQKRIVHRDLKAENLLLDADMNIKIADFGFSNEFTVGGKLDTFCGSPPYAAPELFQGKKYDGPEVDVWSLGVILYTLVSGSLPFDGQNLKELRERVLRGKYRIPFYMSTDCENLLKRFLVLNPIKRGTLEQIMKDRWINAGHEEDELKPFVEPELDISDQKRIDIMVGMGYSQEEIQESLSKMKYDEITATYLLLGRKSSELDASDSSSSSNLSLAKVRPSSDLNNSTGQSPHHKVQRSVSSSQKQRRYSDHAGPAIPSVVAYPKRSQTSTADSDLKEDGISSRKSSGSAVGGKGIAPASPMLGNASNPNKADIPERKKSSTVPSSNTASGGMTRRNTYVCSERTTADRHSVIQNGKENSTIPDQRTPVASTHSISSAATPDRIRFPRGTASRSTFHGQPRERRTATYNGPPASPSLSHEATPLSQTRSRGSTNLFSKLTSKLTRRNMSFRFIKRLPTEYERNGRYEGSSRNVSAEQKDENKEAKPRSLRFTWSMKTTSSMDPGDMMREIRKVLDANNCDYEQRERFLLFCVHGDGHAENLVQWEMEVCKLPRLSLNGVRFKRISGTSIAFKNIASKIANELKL
T1 sequence (P61075 whole entry): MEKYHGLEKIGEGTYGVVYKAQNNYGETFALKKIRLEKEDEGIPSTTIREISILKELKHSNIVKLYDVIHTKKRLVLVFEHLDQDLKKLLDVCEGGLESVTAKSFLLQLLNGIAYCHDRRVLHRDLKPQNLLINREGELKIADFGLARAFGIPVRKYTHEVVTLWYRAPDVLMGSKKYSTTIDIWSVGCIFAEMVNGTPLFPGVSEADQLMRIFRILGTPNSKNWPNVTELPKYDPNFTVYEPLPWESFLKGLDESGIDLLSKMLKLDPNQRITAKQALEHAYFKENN
Sequence of CHEK2 (O96017 whole entry): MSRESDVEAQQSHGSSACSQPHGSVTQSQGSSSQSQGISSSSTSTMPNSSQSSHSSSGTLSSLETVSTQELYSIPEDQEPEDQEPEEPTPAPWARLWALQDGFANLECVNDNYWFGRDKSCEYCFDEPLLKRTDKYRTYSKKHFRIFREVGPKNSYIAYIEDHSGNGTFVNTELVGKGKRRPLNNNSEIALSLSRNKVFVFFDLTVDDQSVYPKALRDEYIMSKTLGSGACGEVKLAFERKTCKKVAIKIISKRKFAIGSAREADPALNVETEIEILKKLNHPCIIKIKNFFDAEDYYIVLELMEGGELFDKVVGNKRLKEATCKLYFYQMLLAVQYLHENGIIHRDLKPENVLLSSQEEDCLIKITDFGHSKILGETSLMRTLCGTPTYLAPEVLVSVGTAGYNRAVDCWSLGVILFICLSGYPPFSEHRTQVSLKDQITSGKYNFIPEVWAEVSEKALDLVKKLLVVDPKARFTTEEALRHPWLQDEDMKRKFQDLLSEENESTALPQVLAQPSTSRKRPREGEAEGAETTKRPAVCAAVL

`COc1cc2c(cn1)N(C)C(=O)[C@@H](NC(=O)c1nc3n(n1)[C@H](c1ccccc1)CC3)CC2` [GNE684, (S)-N-((S)-7-methoxy-1-methyl-2-oxo-2,3,4,5-tetrahydro-1H-pyrido[3,4-b]azepin-3-yl)-5-phenyl-6,7-dihydro-5H-pyrrolo[1,2-b][1,2,4]triazole-2-carboxamide]: the remaining binding at 10 µM on CHEK2 came to 100%; on EGFR(G719C) it was 87%; at MUSK it was 98%; at CAMKK1 it was 99%; at LATS2 it was 84%; on WNK2, 83%. Moreover, the remaining binding at 10 µM is 94% at ACVR2B; 100% at PFPK5(P.falciparum); 100% at NEK10; 95% at CSNK1G3; 71% on PIM2; 99% on PAK3. The remaining binding at 10 µM at LRRK2(G2019S) came out at 97%; at EPHA5, 100%; on MARK3, 100%; on PAK4 it was 93%; on MTOR, 100%; on RIOK2, 28%. In addition, the remaining binding at 10 µM at MYLK2 came out at 83%; on TYRO3 it was 97%; on MAPKAPK2 it was 100%; at SRPK1, 93%.
